How the values were obtained:
[1] = tested on: Chloroform-Induced Arrythmia; assay: Activity against chloroform-induced arrythmia in rats (prevention of ventricular fibrillation); assay type: in vivo, Sprague-Dowley male rats; settings: for Percent prevention (ventricular fibrillation), starved: starved rats
Experimental: Activity Aganist Chloroform-Induced Arrythmia in Rats
The following procedures were substantially in accordance with the method of Erker and Baker (Arch. Int. Pharmacodyn., 243, 97-102, 1980). Aminophylline (20 mg/kg) was injected intramuscularly into two groups of Sprague-Dowley male rats (3-4 wk. old, 7 animals per group) weighing about 100 g on average, one group having been starved for 24 hours and the other group not starved. Thirty minutes after the injection, the animals were put into a 4,000-ml glass beaker with a lid that contained gauze impregnated with […] of chloroform. Fifty minutes later, the animals were recovered from the beaker and their chests were incised to check their hearts for the presence of ventricular fibrillation. The features of their cardiac rhythm were examined by the electrocardiogram. When no distinct fibrillation was observed, the heart was touched with tweezers. The heart was identified as fibrillar when rapid irregular twitchings occured on the surface of ventricles and continued for at least 5 seconds after chest incision or mechanical stimulation.
Selected compounds suspended in 3% gum arabic were administered in various doses to the rats either intraperitoneally (i.P.) or perorally (P.O.) 30 minutes prior to treatment with chloroform. The percent prevention of ventricular fibrillation was determined for each rat. Only a 3% gum arabic solution was administered to the control group.

Acetylcholine [2] = assay: Activity against acetylcholine (I): inhibition of acetylcholine-induced contraction of isolated ilea; set-up: species or system SD/Slc male rats; settings: 10^-4 M; 10^-6 M acetylcholine; isolated rat ilea
Experimental: Activity Against Acetylcholine (I)
SD/Slc male rats (10-mo. old, four animals per group) were clubbed dead and their ilea were immediately extracted. The ilea were suspended under a load of 1 g in a Krebs-Henseleit solution oxygenated with a mixture of 95% O2 +5% CO2 at 27° C., and the ileal reaction was measured isotonically.
The anti-cholinergic activity of each of the compounds tested was determined in terms of percent inhibition against the contractive reaction of 10^-6 M of acetylcholine (causing 60-70% of the maximum contractive reaction of acetylcholine).

[3] = tested on: Aconitine-Induced Arrythmia; assay: Activity against aconitine-induced arrythmia in rats; assay type: in vivo, Sprague-Dowley male rats; settings: aconitine 1 μg/kg/min; for Time required for ventricular extrasystole to occur: untreated 14.3 min; for Time required for ventricular fibrillation to occur: untreated 35.3 min
Experimental: Activity Against Aconitine-Induced Arrythmia in Rats
Using Sprague-Dowley male rats (9-10 wk. old, two animals per group) weighing about 350 g on average, the following experiment was conducted substantially in compliance with the method of Vargftig et al. (Europ. J. Pharmacol., 6, 49, 1969).
The animals were anesthetized by intraperitoneal administration of 1 g/kg of urethane. A polyethylene cannula was inserted into both the femoral artery and vein of each animal; the drug was administered through the femoral vein while the blood pressure was measured at the femoral artery.
While the aconitine solution was continuously infused into the vein at a rate of 1 μg/kg/min, a selected compound was administered intravenously at 5-minute intervals. In order to prevent the aconitine-induced dyspnea from interfering with the experimental results, 0.2 mg/kg of d-tubocurarine was administered intravenously to each animal, which then was subjected to artificial respiration through a cannula inserted into the trachea (80 breathings/min, with 4 ml of air supplied by a single ventillation).
Identification of arrythmia was made by the ECG in the second induction period; the appearance of a QRS complex with sharply downward deflections was used as an indication of ventricular arrythmia and observation was continued until ventricular fibrillation appeared. The results are shown in Table 3 in terms of the times required for ventricular extrasystole and ventricular fibrillation to occur.

Acetylcholine [4] = assay: Activity against acetylcholine (II): inhibition of acetylcholine-induced saliva excretion; assay type: in vivo, Beagle dogs; settings: dose 100 (g), intra-arterially, 1 min before acetylcholine
Experimental: Activity Against Acetylcholine (II)
Beagle dogs were anesthetized by intravenous administration of pentobarbital (35 mg/kg). The following experiment was conducted in accordance with the method of Sato et al. (Tohoku J. Exp. Med., 108, 377-388, 1982). The left lower jaw of each animal was incised to identify the submandibular gland, the duct through which saliva was excreted from that gland, and the artery nourishing the same gland. A polyethylene tube was first inserted into the excretory duct. Then, a cannula was inserted into the submandibular gland controlling artery and said gland was perfused with the arterial blood drawn from the femoral artery. The tube from the duct was connected to a drop counter and the number of drops of excreted saliva was recorded. The excretion of saliva was induced by intra-arterial administration of acetylcholine.
One minute before the acetylcholine administration, […] (0.1 ml) of a selected compound was administered intra-arterially and its ability to inhibit saliva excretion was examined.

[5] = cited from earlier work
[6] = tested on: Ouabain-Induced Arrythmia; assay: Activity against ouabain-induced arrythmia in guinea pigs; assay type: in vivo, Hartly male guinea pigs; settings: ouabain 5 μg/kg/min; for Time required for ventricular extrasystole to occur: untreated 28.5 min; for Time required for ventricular fibrillation to occur: untreated 35.1 min; for Time required for cardiac arrest to occur: untreated 41.2 min
Experimental: Activity Against Ouabain-Induced Arrythmia in Guinea Pigs
Hartly male guinea pigs (5-6 wk. old, two animals per group) weighing about 350 g on average were anesthetized by intraperitoneal administration of 1.2 g/kg of urethane. A polyethylene cannula was inserted into both the cervical vein and the carotid artery; the drug was administered through the cervical vein while the blood pressure was measured at the carotid artery. A selected test compound was administered 5 minutes before the sustained intravenous infusion of the ouabain solution (5 μg/kg/min) as described in J. Pharmacol. Exp. Ther., 136, 227, 1962). Identification of arrythmia was made by the ECG in the second induction period; the appearance of a QRS complex with sharply downward deflictions was used as an indication of ventricular arrythmia and observation was continued until ventricular fibrillation and cardiac arrest appeared. The results are shown in Table 4 in terms of the times required for ventricular extrasystole, ventricular fibrillation and cardiac arrest to occur.

Blood Sugar Level = assay: Effect on blood sugar level; assay type: in vivo, SD/Slc male rats; settings: starved overnight
Experimental: Effect on Blood Sugar Level
After starving SD/Slc male rats (body weight, 250 g; 6 animals per group) overnight, 20-μl blood samples were drawn from the tail vein of each rat while it was not anesthetized. Records were taken of the sugar level in each blood sample. A selected compound of the present invention was suspended in 3% gum arabic and the suspension was administered perorally to each rat in an amount of 50 or 200 mg/kg. At 2, 4 and 6 hours of the administration, blood samples were taken and their blood sugar levels were measured. Measurements of blood sugar levels were conducted with a New Blood Sugar Test (Boehringer, Mannheim).
To the control group, a 3% gum arabic solution was administered, and diisopyramide was administered as a comparative drug.

[7] = tested on: sleeping induced by hexobarbital; assay: Effect on the time of sleeping induced by hexobarbital; assay type: in vivo, ddY/Slc male rats; settings: H3PO4 salt, untreated 53.9 ± 2.7
Experimental: Effect on the Time of Sleeping Induced by Hexobarbital
A selected compound of the present invention was administered perorally to ddY/Slc male rats (5-6 wk. old, 10 animals per group) in an amount of 50 or 100 mg/kg. One hour later, […] of hexobarbital was administered intraperitoneally to each animal, thereby causing the loss of orthogonal reflex. The time required for the recovery of orthogonal reflex was measured for each animal.
As comparative drugs, 50 or 100 mg/kg of disopyramide and 5 mg/kg of diazepam were administered perorally.

CC(C)N(CCC(C(N)=O)(c1ccccc1)c1ccccn1)C(C)C (centres unmarked) [Disopyramide, reference compound]
responders at 10 mg/kg ([1]; Rattus norvegicus, po, 0.5 h, read-out: Percent prevention (ventricular fibrillation), not starved): 37.6% | Percent prevention (ventricular fibrillation), starved ([1]; 10 mg/kg P.O., 30 min prior to chloroform): 49.6% | Percent inhibition (contractive reaction of acetylcholine) (Acetylcholine [2]): 89% | Time required for ventricular extrasystole to occur ([3]; 10 mg/kg intravenously): 22.6 min | Time required for ventricular fibrillation to occur ([3]; 10 mg/kg intravenously): 78.2 min | Percent inhibition (saliva excretion) (Acetylcholine [4]): 41.7% | action on the cardiac muscles ([5]; clinical): inhibitory action on the cardiac muscles | undesirable side effects ([5]; clinical, presumably from anti-cholinergic action): hydrodipsia, anuresis, constipation, vertigo, blurring of vision and vomiting | incidence of anuresis ([5]; patients with prostatomegaly and neurotic bladders due to diabetes): High incidence of anuresis | activity in peroral administration ([5]; peroral, clinical): sustained activity | Time required for ventricular extrasystole to occur ([6]; 10 mg/kg via cervical vein): 41.1 min | Time required for ventricular fibrillation to occur ([6]; 10 mg/kg via cervical vein): 54.3 min | Time required for cardiac arrest to occur ([6]; 10 mg/kg via cervical vein): 59.6 min | Blood sugar level, 0 hr (mean ± S.E.) (Blood Sugar Level; 50 mg/kg perorally): 75.2 ± 5.9 mg/dL | Blood sugar level, 2 hr (mean ± S.E.) (Blood Sugar Level; 50 mg/kg perorally): 46.9 ± 1.7 mg/dL | Blood sugar level, 4 hr (mean ± S.E.) (Blood Sugar Level; 50 mg/kg perorally): 41.9 ± 2.9 mg/dL | Blood sugar level, 6 hr (mean ± S.E.) (Blood Sugar Level; 50 mg/kg perorally): 45.8 ± 2.0 mg/dL | Blood sugar level, 0 hr (mean ± S.E.) (Blood Sugar Level; 200 mg/kg perorally): 64.5 ± 5.6 mg/dL | Blood sugar level, 2 hr (mean ± S.E.) (Blood Sugar Level; 200 mg/kg perorally): 41.7 ± 3.1 mg/dL | Blood sugar level, 4 hr (mean ± S.E.) (Blood Sugar Level; 200 mg/kg perorally): 29.7 ± 3.2 mg/dL | Blood sugar level, 6 hr (mean ± S.E.) (Blood Sugar Level; 200 mg/kg perorally): 36.9 ± 2.6 mg/dL | Time of sleeping (mean ± S.E.) ([7]; 50 mg/kg perorally): 59.8 ± 3.3 min | Time of sleeping (mean ± S.E.) ([7]; 100 mg/kg perorally): 53.5 ± 2.4 min

Cc1cccc(C)c1NC(=O)CCNCCN(C(C)C)C(C)C [Compound No. 1, 3-(diisopropylaminoethylamino)-2',6'-dimethylpropionanilide]
responders at 25 mg/kg ([1]; Rattus norvegicus, ip, 0.5 h, not starved rats, 25 mg/kg i.P., 30 min prior to chloroform, read-out: Percent prevention (ventricular fibrillation), not starved): 85.7% | responders at 1 mg/kg ([1]; Rattus norvegicus, po, 0.5 h, not starved rats, 1 mg/kg P.O., 30 min prior to chloroform, read-out: Percent prevention (ventricular fibrillation), not starved): 85.7% | Percent prevention (ventricular fibrillation), starved ([1]; 1 mg/kg P.O., 30 min prior to chloroform): 85.7% | Percent inhibition (contractive reaction of acetylcholine) (Acetylcholine [2]): 20% | Time required for ventricular extrasystole to occur ([3]; 5 mg/kg intravenously): 45.2 min | Time required for ventricular fibrillation to occur ([3]; 5 mg/kg intravenously): > 120.0 min | Percent inhibition (saliva excretion) (Acetylcholine [4]): 0% | Time required for ventricular extrasystole to occur ([6]; 5 mg/kg via cervical vein): 42.1 min | Time required for ventricular fibrillation to occur ([6]; 5 mg/kg via cervical vein): 45.4 min | Time required for cardiac arrest to occur ([6]; 5 mg/kg via cervical vein): 51.3 min | Blood sugar level, 0 hr (mean ± S.E.) (Blood Sugar Level; 50 mg/kg perorally): 68.4 ± 4.0 mg/dL | Blood sugar level, 2 hr (mean ± S.E.) (Blood Sugar Level; 50 mg/kg perorally): 63.0 ± 4.1 mg/dL | Blood sugar level, 4 hr (mean ± S.E.) (Blood Sugar Level; 50 mg/kg perorally): 58.1 ± 2.2 mg/dL | Blood sugar level, 6 hr (mean ± S.E.) (Blood Sugar Level; 50 mg/kg perorally): 59.9 ± 2.6 mg/dL | Blood sugar level, 0 hr (mean ± S.E.) (Blood Sugar Level; 200 mg/kg perorally): 83.7 ± 3.0 mg/dL | Blood sugar level, 2 hr (mean ± S.E.) (Blood Sugar Level; 200 mg/kg perorally): 55.4 ± 5.7 mg/dL | Blood sugar level, 4 hr (mean ± S.E.) (Blood Sugar Level; 200 mg/kg perorally): 73.4 ± 7.2 mg/dL | Blood sugar level, 6 hr (mean ± S.E.) (Blood Sugar Level; 200 mg/kg perorally): 71.2 ± 3.2 mg/dL

— US4855497A, “Novel diamine derivatives” (Chugai Seiyaku Kabushiki Kaisha, priority 1985, dated 1989)
